pIC50, pKi: −log10 of the molar value.
Legend:
MLXBIR3SG [1] = target: T1, MLXBIR3SG (Homo sapiens, UniProt Q96CA5, S150G); assay: TR-FRET peptide binding assay; settings: TR-FRET competition; 300 nM his-tagged MLXBIR3SG, 200 nM biotinylated SMAC peptide (AVPI)
T1 sequence (Q96CA5 with tags, fused parts or gaps S150G): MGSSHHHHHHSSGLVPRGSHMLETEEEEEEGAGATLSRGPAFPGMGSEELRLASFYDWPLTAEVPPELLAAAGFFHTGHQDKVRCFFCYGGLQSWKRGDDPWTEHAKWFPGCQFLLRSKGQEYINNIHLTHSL
Protocol: The improved caspase-9 inhibition of the chimeric BIR domain MLXBIR3SG has been correlated with increased inhibition of doxorubicin-induced apoptosis when transfected into MCF7 cells. TR-FRET Peptide Binding Assay Time-Resolved Fluorescence Resonance Energy Transfer competition experiments were performed on the Wallac Victor2 Multilabeled Counter Reader (Perkin Elmer Life and Analytical Sciences, Inc.) according to the procedures of Kolb et al (Journal of Biomolecular Screening, 1996, 1(4):203). A reagent cocktail containing 300 nM his-tagged MLXBIR3SG; 200 nM biotinylated SMAC peptide (AVPI); 5 μg/mL anti-his allophycocyanin (XL665) (CISBio International); and 200 ng/mL streptavidin-europium (Perkin Elmer) was prepared in reagent buffer (50 mM Tris [pH 7.2], 120 mM NaCl, 0.1% bovine globulins, 5 mM DTT and 0.05% octylglucoside). […] The reagent cocktail was incubated at room temperature for 30 minutes. […] After a 90 minute incubation at room temperature, the fluorescence was read with filters for the excitation of europium (340 nm) and for the emission wavelengths of europium (615 nm) and a allophycocyanin (665 nm). Antagonist data were calculated as a ratio of the emission signal of allophycocyanin at 665 nm to that of the emission of europium at 615 nm (these ratios were multiplied by a factor of 10,000 for ease of data manipulation). The resulting values were plotted as a function of antagonist concentration and fit to a 4-parameter equation using Kaleidograph software (Synergy Software, Reading, Pa.). Indications of antagonist potency were determined from the IC50 values.

MLXBIR3SG [2] = target: T1, MLXBIR3SG; assay: Fluorescence polarization peptide binding assay; settings: fluorescence polarization competition; for pKi: Ki determined from the IC50 values; for pIC50: MLXBIR3SG at 30 nM, 5 nM AVP-diPhe-FAM probe
Protocol: The improved caspase-9 inhibition of the chimeric BIR domain MLXBIR3SG has been correlated with increased inhibition of doxorubicin-induced apoptosis when transfected into MCF7 cells. Fluorescence Polarization Peptide Binding Assay Polarization experiments were performed on an Analyst HT 96-384 (Molecular Devices Corp.) according to the procedure of […]., Zioncheck, K., Clark, K., Arellano, F., and Bodary., S.(2000) in Proceedings of SPIE : In Vitro Diagnostic Instrumentation (Cohn, G. E., Ed.) pp 128-137, Bellingham, Wash. […] Fluorescence values were plotted as a function of the protein concentration, and the IC50s were obtained by fitting the data to a 4-parameter equation using Kaleidograph software (Synergy software, Reading, Pa.). […] Samples were read after a 10-minute incubation. Fluorescence polarization values were plotted as a function of the antagonist concentration, and the IC50 values were obtained by fitting the data to a 4-parameter equation using Kaleidograph software (Synergy software, Reading, Pa.). Inhibition constants (Ki) for the antagonists were determined from the IC50 values.

Structure (SMILES) | pIC50 (MLXBIR3SG [1]) | pKi (MLXBIR3SG [2]) | pIC50 (MLXBIR3SG [2])
CN[C@@H](C)C(=O)N[C@H](C(=O)N1CCC2CCC(NC(=O)c3coc4ccccc34)C21)C(C)(C)C (stereo partly drawn) [Compound 11] | > 5.00 |  | 
CN[C@@H](C)C(=O)N[C@H](C(=O)N1CCC2CCC(NC(=O)c3ccc(C)c4ccccc34)C21)C(C)(C)C (stereo partly drawn) [Compound 6] | > 5.00 | > 6.70 | > 6.00
CN[C@@H](C)C(=O)N[C@H](C(=O)N1CCC2CCC(NC(=O)C(c3ccccc3)c3ccc(F)cc3)C21)C(C)(C)C (stereo partly drawn) [Compound 4] | > 5.00 | > 6.70 | > 6.00
CN[C@@H](C)C(=O)N[C@H](C(=O)N1CCC2CCC(NC(=O)c3csc4ccccc34)C21)C(C)(C)C (stereo partly drawn) [Compound 16] | > 5.00 | > 6.70 | > 6.00
CN[C@@H](C)C(=O)N[C@H](C(=O)N1CCC2CCC(NC(=O)c3cccc4ccccc34)C21)C(C)(C)C (stereo partly drawn) [Compound 21] | > 5.00 |  | 
COc1ccc2ccccc2c1C(=O)NC1CCC2CCN(C(=O)C(NC(=O)C(C)N)C(C)C)C21 (stereo not drawn) [Compound 5] | > 5.00 |  | 
CN[C@@H](C)C(=O)N[C@H](C(=O)N1CCC2CCC(NC(=O)C3COc4ccccc43)C21)C(C)(C)C (stereo partly drawn) [Compound 3] | > 5.00 |  | 
CNC(C)C(=O)NC(C(=O)N1CCC2CCC(NC(=O)C(c3ccccc3)c3ccccc3)C21)C(C)(C)C (stereo not drawn) [Compound 9] | > 5.00 |  | 
CN[C@@H](C)C(=O)N[C@H](C(=O)N1CCC2CCC(NC(=O)c3cccc4ccccc34)C21)C1CCCCC1 (stereo partly drawn) [Compound 28] | > 5.00 |  | 
CN[C@@H](C)C(=O)N[C@H](C(=O)N1CCC2CCC(NC(=O)c3ccccc3)C21)C(C)(C)C (stereo partly drawn) [Compound 14] | > 5.00 |  | 
CN[C@@H](C)C(=O)N[C@H](C(=O)N1CCC2CCC(NC(=O)c3c(OC)ccc4ccccc34)C21)C(C)(C)C (stereo partly drawn) [Compound 12] | > 5.00 | > 6.70 | > 6.00
CN[C@@H](C)C(=O)N[C@H](C(=O)N1CCC2CCC(NC(=O)c3ccc(F)c4ccccc34)C21)C(C)(C)C (stereo partly drawn) [Compound 24] | > 5.00 | > 6.70 | > 6.00
C[C@H](N)C(=O)N[C@H](C(=O)N1CCC2CCC(NC(=O)c3cccc4ccccc34)C21)C(C)(C)C (stereo partly drawn) [Compound 13] | > 5.00 |  | 
C[C@H](N)C(=O)N[C@H](C(=O)N1CCC2CCC(NC(=O)C(c3ccccc3)c3ccccc3)C21)C(C)(C)C (stereo partly drawn) [Compound 22] | > 5.00 |  | 

Reference: US7345081B2, “Azabicyclo-octane inhibitors of IAP” (Genentech, Inc., priority 2004, dated 2008)
